Legend:
[1] = tested on: healthy young men; settings: cited from earlier work
[2] = tested on: intact cynomolgus male and female monkeys; assay: Intact cynomolgus monkey model; assay type: in vivo; settings: for serum cholesterol decrease, of the corresponding Day −3 values: males and females
Description: Intact cynomolgus male and female monkeys are used to assess of the effects of the compositions provided herein or the individual SERM or SARM compounds on hypothalamic-pituitary-gonadal axis and lipid profile. All animals are dosed via oral or nasol gavage once daily for consecutive days with either vehicle or testing articles of different doses. The first day of dosing is designated Day 1 for all animals. Blood samples are collected for analysis of LH, FSH, T, Estrodiol, total cholesterol, triglycerides, cortisol, and coagulation parameters included prothrombin time (PT) and activated partial thromboplastin time on Days −3 and end of the study.
In this model, Compound 2 was dosed at 0, 5, 50, 150, and 450 mg/kg/day for 14 days. […] In a separate study, the compound was dosed at 0, 3, 10, 30, 120, and 500 mg/kg/day for 30 days. […] Serum testosterone was suppressed in males as indicated by lower 75th, 50th, and 25th percentile values in samples from treated monkeys than vehicle controls.
In this model, Compound 1 was dosed at 0, 1, 5, and 15 mg/kg/day for 3 months.

[3] = tested on: orchidectomized male Sprague-Dawley rat; assay: Orchidectomized mature male rat model
[4] = tested on: ovariectomized mature female rats; assay: Ovariectomized mature female rat model; assay type: in vivo; settings: restoration mode
Description: Ovariectomized mature female rats are used to characterize primarily bone activity of the compositions provided herein or the individual SERM or SARM compounds. A sham group is used as control. The model can be run in either maintenance mode where the animals are dosed one day after the ovariectomy or restoration mode where the animals are dosed seven to eight weeks after the surgery. The rats are scanned by dual energy x-ray absorptiometry and sorted into experimental groups based upon femoral bone mineral content (BMC). Three dosages of testing compositions/compounds are administered orally once a day for 4, 8, or 12 weeks and estradiol and testosterone are administered subcutaneously to the reference groups. Animals received subcutaneous injections of fluorochrome markers for bone histomorphometric analysis. Alizarian Red S was prepared as a 3% solution and given at a dose of 30 mg/kg at the time of the baseline scan. Calcein was administered 10 days and 3 days prior to necropsy.
Approximately 24 hours after the last dose, blood is collected and the gastrocnemius muscle, plantaris muscle, uterus, clitoral glands, clitoris and inguinal fat pads were isolated, blotted and weighed individually. The left femur and lumbar vertebra L5 are wrapped in saline-soaked gauze and stored at −20° C. for biochemical analysis. The right femur and lumbar vertebrae L3-L4 are collected and stored in 70% ethanol for histomorphometry. The right tibia is collected in formalin for histological analysis. The left tibia is collected on dry ice and stored at −20° C. for measurement of alkaline phosphatase activity.
BMC, bone mineral density (BMD) and bone length are measured by pDEXA on an entire femur. The coefficient of variation for repeated measurement of the isolated femur is less than 0.4% for the BMC and the BMD measurements. […] Serum osteocalcin, a marker for bone turnover, and alkaline phosphatase derived from the tibial periosteum are also measured. Whole femurs are collected for biomechanical analysis and thawed at room temperature prior to testing. Peak load and peak displacement are measured directly from the load cell and the crosshead, respectively. Stiffness is calculated from the slope of the linear region of the load/displacement curve. Lumbar vertebra L5 is also measured in the mechanical testing for bone strength.
Bone histomorphometry is performed to indicate growth of the new bone during the study. The section from the lumbar vertebral bodies is used for histomorphometric indices of cancellous bone, while the sections of the femur mid-shafts are used for histomorphometric indices of cortical bone.
Body weight, gastrocnemius weight and plantaris weight changes are measured indicating anabolic activity of the testing compositions/compounds on skeletal muscle. Inguinal fat pad weight is used as a representative fat pad to assess the effects of the testing compounds on body fat. Clitoral gland and clitoral weights are measured to assess the virilizing effect of drugs.
In the maintenance node of this model, (5R,6S)-6-phenyl-5-[4-(2-pyrrolidin-1-ylethoxy)phenyl]-5,6,7,8-tetrahydronaphthalen-2-ol (Compound 1) was dosed daily at 0 (sham), 0 (OVX), 0.01, 0.05, and 0.25 mg/kg for 8 weeks and 17α-ethynylestradiol was dosed at 0.03 mg/kg/day. […] Micro-computerized tomography (uCT) measured the density and connectivity of the trabecular bone in the femur and pQCT measured at the distal femur.
In the restoration mode of this osteopenic female rat model, 4-(2(R)-(1(S)-hydroxyl-2,2,2-trifluoroethyl)-pyrrolidinyl)-2-trifluoromethylbenzonitrile (Compound 2, Formula I, R^1═CF3, R^2═R^3═H) was dosed at 0 (sham), 0 (OVX), 0.03, 0.3, and 3 mg/kg orally for 12 weeks. […] Compound 2 suppressed cancellous bone turnover while increasing trabecular bone volume and increasing bone mineral density at the lumbar spine.
In the same experiment of Compound 2, another SARM compound, ostarine, was dosed at 0.03, 0.3, and 3 mg/kg/day orally for 12 weeks.

[5] = females, 3 to 500 mg/kg/day for 30 days
[6] = 0.03, 0.3, 3 mg/kg orally for 12 weeks

In the case of `N#Cc1ccc(N2CCC[C@@H]2[C@H](O)C(F)(F)F)cc1C(F)(F)F` [Compound 2, 4-(2(R)-(1(S)-hydroxyl-2,2,2-trifluoroethyl)-pyrrolidinyl)-2-trifluoromethylbenzonitrile], the “safety and pharmacokinetic profiles” value [1] is given as “favorable safety and pharmacokinetic profiles”, the triglycerides ([2]; Day 14, 5 to 450 mg/kg/day for 14 days) is given as “without dose dependent changes” and the “serum cholesterol decrease, of the corresponding Day −3 values” (from here on “serum cholesterol decrease”) ([2]; Day 14, 5 mg/kg/day for 14 days) is given as 71%. For the same compound, the “serum cholesterol decrease” value ([2]; Day 14, 50 mg/kg/day for 14 days) was 81%, the “serum cholesterol decrease” value ([2]; Day 14, 150 mg/kg/day for 14 days) was 79% and the “serum cholesterol decrease” value ([2]; Day 14, 450 mg/kg/day for 14 days) was 84%. The “effect on the hypothalamic-pituitary-gonadal axis” value ([2]; female and male monkeys, 3 to 500 mg/kg/day for 30 days) was “suppressive effect”, the “serum FSH” value [2, 5] was “significantly suppressed” and the serum estradiol [2, 5] was “significantly suppressed”. For the same compound, the serum testosterone ([2]; males, lower 75th, 50th, 25th percentile values than vehicle controls, 30 days) was “suppressed”, the “serum FSH” value ([2]; sentence follows the male results, 30 days) was “not significantly altered” and the exposure versus dose ([3]; 0.03 to 100 mg/kg/day for 14 days, rat) was “dose proportional exposure”. The “efficacy (relative to sham) in sex accessory and sebaceous glands” value ([3]; at doses that maintained levator ani weights at sham equivalent levels) was “lower efficacy”, the “serum LH” value ([3]; at high doses) was “suppressed serum LH below sham-equivalent levels” and the AUC24 ([3]; at the dose of 2 mg/kg/day, rat) was 0.2. For the same compound, the “activity in musculoskeletal endpoints” value ([3]; restoration mode, 0.03 to 100 mg/kg/day for 14 days) was “positive activity”, the “dose reducing the elevated LH levels in castrate rats” value ([3]; restoration mode, 14 days) was at least 10 mg/kg/day and the “dose that maintained levator ani weight at sham-equivalent levels” value ([3]; restoration mode, 14 days) was 2 mg/kg/day. For the same compound, the “tissue selectivity toward the muscle endpoint” value ([3]; restoration mode, 14 days) was “tissue selective activity”, the “activity on the clitoral gland, clitoris or uterus relative to testosterone” value ([4]; 0.3 mg/kg/day dose) was “reduced activity” and the “efficacy on muscle and bone compared with testosterone” value ([4]; 0.3 mg/kg/day dose) was “more efficacious”. The “bone mineral density at the lumbar spine” value [4, 6] was “increasing”, the cancellous bone turnover [4, 6] was “suppressed” and the “cortical bone mass, density, strength, stiffness and periosteal bone formation rates” value [4, 6] was “significantly increased”. The “gastrocnemius muscle weight, plantaris muscle weight and body weight” value [4, 6] was “increased”, the “inguinal fat pad weight” value [4, 6] was “without affecting” and the trabecular bone volume [4, 6] was “increasing”.
